# Results from patent US20230119764A1, “APPLICATION OF DIMETHYL BERBAMINE COMPOUND IN INHIBITION OF SARS-COV-2” (priority 2020, published 2023).
# Entries after “also recorded” stand apart in the source; their conditions may differ.
# Assays:
# [1] = test system: SARS-CoV-2 virus (nCoV-2019BetaCoV/Wuhan/WIV04/2019 isolate); experiment: microbe, parasite or virus in culture; format: cell-based; conditions: for Copy number of viral genome (MOI = 0.01): MOI 0.01, Vero E6 supernatant; for Copy number of viral genome (MOI = 0.01) / Copy number of viral genome (MOI = 0.05): 48 h, copy number per milliliter; for Copy number of viral genome (MOI = 0.05): MOI 0.05, Vero E6 supernatant; for SI (selectivity index): Example 1, drug pretreatment 1 hour; for EC50: Severe acute respiratory syndrome coronavirus 2, Vero C1008, Example 1, drug pretreatment 1 hour; for Inhibition of SARS-CoV-2 (in words): Example 1, in vitro, Vero E6
# [2] = Drug cytotoxicity on cells, CellTiter-Glo kit; format: cell-based; conditions: African green monkey, Vero-E6 cells, 24 hours
# Procedure: (§1) 1.5.1 Vero E6 cell culture: 0.1 ml of 0.25% trypsin, 5 ml of 0.02% EDTA were added to a culture flask full of cells, the digestion was carried out at 37° C. for 5 minutes, then the digestion solution was discarded, the cell culture solution was added and then mixed by pipetting up-down. The cells were subcultured at 1:3, reached confluence within 3 days, formulated into 100,000 cells per ml, inoculated to a 96-well cell culture plate, 0.1 ml per well, and cultured at 37° C., 5% CO2 for 24 hours, and the cells grew into monolayer was used for experiment.
# (§2) 1.5.2 Experiment of Drug Cytotoxicity on Cells:
# (§3) The detection of drug cytotoxicity was determined using CellTiter-Glo kit (Promega). Specific steps were as follows:
# (§4) (1) 1×10^4 Vero-E6 cells were inoculated in a 96-well plate and cultured at 37° C. for 8 hours.
# (§5) (2) The stock solution of drug was diluted with MEM medium containing 2% FBS to the desired concentration, the original medium in the 96-well plate was discarded, and 100 μL of the drug-containing MEM medium was taken and added to the corresponding wells, so that the final concentrations of drug in the wells were those shown in Tables 1 to 3, respectively, and three replicate wells were made for each concentration. At the same time, a vehicle control (adding DMSO or PBS, and 2% FBS-containing MEM medium without drug to the cell wells) and a blank control (adding DMSO and 2% FBS-containing MEM medium to the wells without cells) were set. After the addition of drug, the cells were incubated at 37° C. for 24 hours.
# (§6) (3) 100 μL of CellTiter-Glo solution (Promega) was added to the wells to be tested, and mixed by shaking for 2 min to fully lyse the cells, incubated at room temperature for 10 minutes, and readings of chemiluminescence signals […] were obtained on a microplate reader (purchased from Molecular Devices, model: SpectraMax M5). The cell viability was calculated by taking the readings into the following formula:
# (§7) Cell viability (%)=(A(drug treatment group)−A(blank control))/(A(vehicle control)−A(blank control))×100%
# (§8) where A represented the reading on the microplate reader.
# [3] = test system: Vero-E6 cells; experiment: Drug cytotoxicity on cells, CellTiter-Glo kit; format: cell-based; conditions: for Cell viability (% of vehicle control): Vero-E6, 24 hours
# Procedure: as §1, §2, §3, §4, §5, §6, §7, §8
# [4] = test system: SARS-CoV-2 virus (nCoV-2019BetaCoV/Wuhan/WIV04/2019 isolate); experiment: microbe, parasite or virus in culture; format: cell-based; conditions: for SI (selectivity index): Example 2, no drug pretreatment; for EC50: Severe acute respiratory syndrome coronavirus 2, Vero C1008, Example 2, no drug pretreatment; for Inhibition of SARS-CoV-2 (in words): Example 2, drug added after virus infection of cells
# [5] = test system: SARS-CoV-2 virus; conditions: previous studies, Wang et al., 2020; cited from earlier work
# [6] = test system: SARS-CoV-2 virus (nCoV-2019BetaCoV/Wuhan/WIV04/2019 isolate); experiment: EC50 by nucleic acid quantification on Vero cells (Example 3), quantitative RT-PCR; format: cell-based
# [7] = MOI 0.01, Vero E6, read-out: EC50
# [8] = MOI 0.05, Vero E6, read-out: EC50
smiles,measurement,setting,value
CCC(CC)COC(=O)[C@H](C)N[P@](=O)(OC[C@H]1O[C@@](C#N)(c2ccc3c(N)ncnn23)[C@H](O)[C@@H]1O)Oc1ccccc1 [Remdesivir],Copy number of viral genome (MOI = 0.01),[1]; 0.12 μM,3900176000
same,Copy number of viral genome (MOI = 0.05),[1]; 0.12 μM,11594175000
same,Copy number of viral genome (MOI = 0.01),[1]; 0.37 μM,1901120292
same,Copy number of viral genome (MOI = 0.05),[1]; 0.37 μM,9405568167
same,Copy number of viral genome (MOI = 0.01),[1]; 1.11 μM,19898611
same,Copy number of viral genome (MOI = 0.05),[1]; 1.11 μM,545157271
same,Copy number of viral genome (MOI = 0.01),[1]; 3.33 μM,243294
same,Copy number of viral genome (MOI = 0.05),[1]; 3.33 μM,13188656
same,Copy number of viral genome (MOI = 0.01),[1]; 10 μM,563645
same,Copy number of viral genome (MOI = 0.05),[1]; 10 μM,3230111
same,Copy number of viral genome (MOI = 0.01),[1]; 30 μM,975616
same,Copy number of viral genome (MOI = 0.05),[1]; 30 μM,2594526
same,SI (selectivity index),[1]; MOI 0.01,534.33
same,SI (selectivity index),[1]; MOI 0.05,271.69
same,EC50,"[1]; MOI 0.01, Vero E6",300 nM
same,EC50,"[1]; MOI 0.05, Vero E6",590 nM
same,CC50 at 24 h,[2],160 µM
same,Cell viability (% of vehicle control),[3]; 3.13 μM,97.16 % of vehicle control
same,Cell viability (% of vehicle control),[3]; 6.25 μM,99.17 % of vehicle control
same,Cell viability (% of vehicle control),[3]; 12.5 μM,99.62 % of vehicle control
same,Cell viability (% of vehicle control),[3]; 25 μM,95.71 % of vehicle control
same,Cell viability (% of vehicle control),[3]; 50 μM,90.20 % of vehicle control
same,Cell viability (% of vehicle control),[3]; 100 μM,70.09 % of vehicle control
same,Cell viability (% of vehicle control),[3]; 200 μM,40.05 % of vehicle control
same,SI (selectivity index),[4]; MOI 0.01,696.96
same,SI (selectivity index),[4]; MOI 0.05,258.55
same,EC50,"[4]; MOI 0.01, Vero E6",230 nM
same,EC50,"[4]; MOI 0.05, Vero E6",620 nM
"CCN(CC)CCCC(C)Nc1ccnc2cc(Cl)ccc12 (centres unmarked) [Chloroquine phosphate, chloroquine phosphate]",Inhibition of replication of SARS-CoV-2 virus (in words),[5],can effectively inhibit the replication
same,Copy number of viral genome (MOI = 0.01),[1]; 0.21 μM,3451032833
same,Copy number of viral genome (MOI = 0.05),[1]; 0.21 μM,5871676583
same,Copy number of viral genome (MOI = 0.01),[1]; 0.62 μM,2407772083
same,Copy number of viral genome (MOI = 0.05),[1]; 0.62 μM,5663562000
same,Copy number of viral genome (MOI = 0.01),[1]; 1.85 μM,1500455250
same,Copy number of viral genome (MOI = 0.05),[1]; 1.85 μM,4521430250
same,Copy number of viral genome (MOI = 0.01),[1]; 5.56 μM,692991541
same,Copy number of viral genome (MOI = 0.05),[1]; 5.56 μM,1814432458
same,Copy number of viral genome (MOI = 0.01),[1]; 16.67 μM,11907226
same,Copy number of viral genome (MOI = 0.05),[1]; 16.67 μM,52973263
same,Copy number of viral genome (MOI = 0.01),[1]; 50 μM,1019575
same,Copy number of viral genome (MOI = 0.05),[1]; 50 μM,1914748
same,Inhibition of SARS-CoV-2 (in words),[1],obvious inhibitory effects; also recorded: inhibitory activity
same,EC50,[1]; [7],1540 nM
same,EC50,[1]; [8],3770 nM
same,CC50 at 24 h,[2]; unit inferred,92.9 µM
same,Cell viability (% of vehicle control),[3]; 3.70 μM,93.26 % of vehicle control
same,Cell viability (% of vehicle control),[3]; 11.11 μM,90.60 % of vehicle control
same,Cell viability (% of vehicle control),[3]; 33.33 μM,72.67 % of vehicle control
same,Cell viability (% of vehicle control),[3]; 66.67 μM,68.35 % of vehicle control
same,Cell viability (% of vehicle control),[3]; 100 μM,44.84 % of vehicle control
same,Cell viability (% of vehicle control),[3]; 200 μM,41.01 % of vehicle control
same,Cell viability (% of vehicle control),[3]; 300 μM,0.63 % of vehicle control
same,Inhibition of SARS-CoV-2 (in words),[4],obvious inhibitory effects; also recorded: inhibitory activity
same,EC50,[4]; [7],4520 nM
same,EC50,[4]; [8],3630 nM
"COc1ccc2cc1Oc1ccc(cc1)C[C@H]1c3cc(c(OC)cc3CCN1C)Oc1c(OC)c(OC)cc3c1[C@H](C2)N(C)CC3 [Tetrandrine, 6,6′,7,12-tetramethoxy-2,2′-dimethylberbamine]",Copy number of viral genome (MOI = 0.01),[1]; 0.625 μM,3357508000
same,Copy number of viral genome (MOI = 0.05),[1]; 0.625 μM,10669558667
same,Copy number of viral genome (MOI = 0.01),[1]; 1.25 μM,3336005167
same,Copy number of viral genome (MOI = 0.05),[1]; 1.25 μM,7198143667
same,Copy number of viral genome (MOI = 0.01),[1]; 2.5 μM,1707286250
same,Copy number of viral genome (MOI = 0.05),[1]; 2.5 μM,7118504000
same,Copy number of viral genome (MOI = 0.01),[1]; 5 μM,373861479
same,Copy number of viral genome (MOI = 0.05),[1]; 5 μM,2477488500
same,Copy number of viral genome (MOI = 0.01),[1]; 10 μM,1456943
same,Copy number of viral genome (MOI = 0.05),[1]; 10 μM,8161310
same,Copy number of viral genome (MOI = 0.01),[1]; 20 μM,1323393
same,Copy number of viral genome (MOI = 0.05),[1]; 20 μM,4092752
same,SI (selectivity index),[1]; MOI 0.01,14.33
same,SI (selectivity index),[1]; MOI 0.05,8.51
same,Inhibition of SARS-CoV-2 (in words),[1],obvious inhibitory effects; also recorded: inhibitory activity
same,EC50,[1]; [7],1710 nM
same,EC50,[1]; [8],2880 nM
same,CC50 at 24 h,[2],24.5 µM
same,Cell viability (% of vehicle control),[3]; 1.56 μM,94.81 % of vehicle control
same,Cell viability (% of vehicle control),[3]; 3.13 μM,97.38 % of vehicle control
same,Cell viability (% of vehicle control),[3]; 6.25 μM,91.24 % of vehicle control
same,Cell viability (% of vehicle control),[3]; 12.5 μM,78.14 % of vehicle control
same,Cell viability (% of vehicle control),[3]; 25 μM,58.25 % of vehicle control
same,Cell viability (% of vehicle control),[3]; 50 μM,0.28 % of vehicle control
same,Cell viability (% of vehicle control),[3]; 100 μM,0.96 % of vehicle control
same,Toxicity on Vero E6 cells (in words),[3]; all tested concentrations,good safety for the test cells in vitro
same,Inhibition of SARS-CoV-2 (in words),[4],inhibitory activity
same,Inhibition of SARS-CoV-2 (in words),[4]; listed as tetrandrine,obvious inhibitory effects
same,SI (selectivity index),[4]; MOI 0.01,15.22
same,SI (selectivity index),[4]; MOI 0.05,12.51
same,EC50,[4]; [7],1610 nM
same,EC50,[4]; [8],1950 nM
same,Inhibition of SARS-CoV-2 (in words),"[6]; Example 3, cellular level, Vero cells",inhibitory effect
same,EC50,"[6]; Severe acute respiratory syndrome coronavirus 2, 48 h, Example 3, Vero cells, viral load 100 TCID50, two days after infection",8.99 µM
